Laboratory results taken from patent publication US10941157B2, “Pesticidal compositions and uses thereof” (Gilead Apollo, LLC, priority 2015, dated 2021).
≈ marks a conversion by molar mass, not a printed value. Like-named read-outs stand apart in the source and are kept apart here.

Columns and labels:
Assay type in all cases: cell-based
Botrtyis cinerea (Bc) = assay: In vitro pathogen growth inhibition assay, Bc; conditions: 48 h
How it was run: (§1)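 Value reported is the compound concentration reaching ≥90% growth inhibition, from OD readings at 24 and 48 h after blank subtraction, confirmed visually. Inoculum was spores diluted in 17% V8 medium, except Rs, using 1.5 mm mycelial plugs in ¼ PDB; actual compound concentration corrected via OD600.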

[1] = test system: Collectotrichum graminicola (Cg); assay: In vitro pathogen growth inhibition assay, Cg; conditions: 48 h
How it was run: as §1

Diplodia maydis (Dm) = assay: In vitro pathogen growth inhibition assay, Dm; conditions: Stenocarpella maydis, 48 h
How it was run: (§2)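 Spores of Dm, Fv and Pc were diluted in 17% V8 liquid medium; Rs used 1.5 mm mycelial plugs in ¼ PDB. Compounds from 2.5 mg/ml DMSO stocks were combined with inoculum, growth was read by OD600 at 24 and 48 h with blank subtraction, and the reported value is the concentration giving ≥90% inhibition.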

[2] = test system: Fusarium moniliforme (Fm); assay: In vitro pathogen growth inhibition assay, Fm; conditions: Fusarium verticillioides
How it was run: as §1

[3] = test system: Fusarium virguliforme (Fv); assay: In vitro pathogen growth inhibition assay, Fv
How it was run: as §2

[4] = test system: Phytophthora capsici (Pc); assay: In vitro pathogen growth inhibition assay, Pc; conditions: 48 h
How it was run: as §2

Rhizoctonia solani (Rs) = assay: In vitro pathogen growth inhibition assay, Rs (mycelial plugs); conditions: Rhizoctonia solani, 48 h
How it was run: as §2

Septoria tritici (St) = assay: In vitro pathogen growth inhibition assay, St; conditions: Zymoseptoria tritici, 48 h
How it was run: as §1

[5] = ≥90% inhibition, 48 hours vs 2% DMSO control, read-out: Compound Concentration (ppm) sufficient for ≥90% inhibition of growth, Bc
[6] = ≥90% inhibition, 48 hours vs 2% DMSO control, read-out: Compound Concentration (ppm) sufficient for ≥90% inhibition of growth, Cg
[7] = ≥90% inhibition, 48 hours vs 2% DMSO control, read-out: Compound Concentration (ppm) sufficient for ≥90% inhibition of growth, Dm
[8] = ≥90% inhibition, 48 hours vs 2% DMSO control, read-out: Compound Concentration (ppm) sufficient for ≥90% inhibition of growth, Fm
[9] = ≥90% inhibition, 48 hours vs 2% DMSO control, read-out: Compound Concentration (ppm) sufficient for ≥90% inhibition of growth, Fv
[10] = ≥90% inhibition, 48 hours vs 2% DMSO control, read-out: Compound Concentration (ppm) sufficient for ≥90% inhibition of growth, Pc
[11] = ≥90% inhibition, mycelial plugs, 48 hours vs 2% DMSO control, read-out: Compound Concentration (ppm) sufficient for ≥90% inhibition of growth, Rs
[12] = ≥90% inhibition, 48 hours vs 2% DMSO control, read-out: Compound Concentration (ppm) sufficient for ≥90% inhibition of growth, St
[13] = ≥90% growth inhibition, 48 hours, vs 2% DMSO control, read-out: Compound Concentration (ppm) sufficient for ≥90% inhibition of Bc
[14] = ≥90% growth inhibition, 48 hours, vs 2% DMSO control, read-out: Compound Concentration (ppm) sufficient for ≥90% inhibition of Cg
[15] = ≥90% growth inhibition, 48 hours, vs 2% DMSO control, read-out: Compound Concentration (ppm) sufficient for ≥90% inhibition of Dm
[16] = ≥90% growth inhibition, 48 hours, vs 2% DMSO control, read-out: Compound Concentration (ppm) sufficient for ≥90% inhibition of Fm
[17] = ≥90% growth inhibition, 48 hours, vs 2% DMSO control, read-out: Compound Concentration (ppm) sufficient for ≥90% inhibition of Fv
[18] = ≥90% growth inhibition, 48 hours, vs 2% DMSO control, read-out: Compound Concentration (ppm) sufficient for ≥90% inhibition of Pc
[19] = ≥90% growth inhibition, mycelial plugs, 48 hours, vs 2% DMSO control, read-out: Compound Concentration (ppm) sufficient for ≥90% inhibition of Rs
[20] = ≥90% growth inhibition, 48 hours, vs 2% DMSO control, read-out: Compound Concentration (ppm) sufficient for ≥90% inhibition of St

Row | SMILES | IC90 (Botrtyis cinerea (Bc); [5]) | IC90 [1, 6] | IC90 (Diplodia maydis (Dm); [7]) | IC90 [2, 8] | IC90 [3, 9] | IC90 [4, 10] | IC90 (Rhizoctonia solani (Rs); [11]) | IC90 (Septoria tritici (St); [12]) | IC90 (Botrtyis cinerea (Bc); [13]) | IC90 [1, 14] | IC90 (Diplodia maydis (Dm); [15]) | IC90 [2, 16] | IC90 [3, 17] | IC90 [4, 18] | IC90 (Rhizoctonia solani (Rs); [19]) | IC90 (Septoria tritici (St); [20]) | further results
1 | COc1ccc(F)cc1[C@H](Cn1c(=O)n(C(C)(C)C(N)=O)c(=O)c2c(C)c(-n3nccn3)sc21)OC(C)C [Compound I-113] | 2 µg/mL (≈ 3.67 µM) | 2 µg/mL (≈ 3.67 µM) | 2 µg/mL (≈ 3.67 µM) | 0.4 µg/mL (≈ 0.734 µM) | 0.4 µg/mL (≈ 0.734 µM) | > 50 µg/mL | 0.08 µg/mL (≈ 0.147 µM) | 50 µg/mL (≈ 91.8 µM) | – | – | – | – | – | – | – | – | –
2 | CCc1ccc(F)cc1CCn1c(=O)n(C(C)(C)C(=O)NC(C)C)c(=O)c2c(C)c(-n3nccn3)sc21 [Compound I-326] | – | – | – | – | – | – | – | – | 2 µg/mL (≈ 3.8 µM) | 2 µg/mL (≈ 3.8 µM) | 2 µg/mL (≈ 3.8 µM) | 0.08 µg/mL (≈ 0.152 µM) | 0.08 µg/mL (≈ 0.152 µM) | > 50 µg/mL | 10 µg/mL (≈ 19 µM) | > 50 µg/mL | –
3 | COc1ccc(F)cc1[C@H](Cn1c(=O)n(C(C)(C)C(=O)N2CC(O)C2)c(=O)c2c(C)c(-n3nccn3)sc21)OC1CCOCC1 [Compound I-114] | 2 µg/mL (≈ 3.11 µM) | 10 µg/mL (≈ 15.6 µM) | 10 µg/mL (≈ 15.6 µM) | 0.4 µg/mL (≈ 0.622 µM) | 2 µg/mL (≈ 3.11 µM) | > 50 µg/mL | 10 µg/mL (≈ 15.6 µM) | > 50 µg/mL | – | – | – | – | – | – | – | – | –
4 | CCNC(=O)C(C)(C)n1c(=O)c2c(C)c(C(=O)OCC)sc2n(C[C@H](OC2CCOCC2)c2ccccc2OC)c1=O [Compound I-175] | – | – | – | – | – | – | – | – | – | – | – | – | – | – | – | – | IC90 (Botrtyis cinerea (Bc); concentration sufficient to ≥90% inhibition of growth, 48 hours vs 2% DMSO control, read-out: Compound Concentration (ppm) for ≥90% inhibition, Bc): 2 µg/mL (≈ 3.32 µM); IC90 ([1]; concentration sufficient to ≥90% inhibition of growth, 48 hours vs 2% DMSO control, read-out: Compound Concentration (ppm) for ≥90% inhibition, Cg): 50 µg/mL (≈ 83.1 µM); IC90 (Diplodia maydis (Dm); concentration sufficient to ≥90% inhibition of growth, 48 hours vs 2% DMSO control, read-out: Compound Concentration (ppm) for ≥90% inhibition, Dm): 10 µg/mL (≈ 16.6 µM); IC90 ([2]; concentration sufficient to ≥90% inhibition of growth, 48 hours vs 2% DMSO control, read-out: Compound Concentration (ppm) for ≥90% inhibition, Fm): 10 µg/mL (≈ 16.6 µM); IC90 ([3]; concentration sufficient to ≥90% inhibition of growth, 48 hours vs 2% DMSO control, read-out: Compound Concentration (ppm) for ≥90% inhibition, Fv): 10 µg/mL (≈ 16.6 µM); IC90 ([4]; concentration sufficient to ≥90% inhibition of growth, 48 hours vs 2% DMSO control, read-out: Compound Concentration (ppm) for ≥90% inhibition, Pc): > 50 µg/mL; IC90 (Rhizoctonia solani (Rs); concentration sufficient to ≥90% inhibition of growth, 48 hours vs 2% DMSO control, read-out: Compound Concentration (ppm) for ≥90% inhibition, Rs): > 50 µg/mL; IC90 (Septoria tritici (St); concentration sufficient to ≥90% inhibition of growth, 48 hours vs 2% DMSO control, read-out: Compound Concentration (ppm) for ≥90% inhibition, St): > 50 µg/mL
5 | CCO[C@@H](Cn1c(=O)n(C(C)(C)C(=O)NC(C)C)c(=O)c2c(C)c(-n3nccn3)sc21)c1cc(F)ccc1OC [Compound I-054] | 0.4 µg/mL (≈ 0.698 µM) | 0.4 µg/mL (≈ 0.698 µM) | 0.4 µg/mL (≈ 0.698 µM) | 0.08 µg/mL (≈ 0.14 µM) | ≥ 0.08 µg/mL | > 50 µg/mL | 0.4 µg/mL (≈ 0.698 µM) | 10 µg/mL (≈ 17.5 µM) | – | – | – | – | – | – | – | – | –
6 | CCc1ccc(F)cc1[C@H](Cn1c(=O)n(C(C)(C)C(=O)NC(C)C)c(=O)c2c(C)c(-n3nccn3)sc21)OCC(C)(C)C#N [Compound I-279] | – | – | – | – | – | – | – | – | 0.08 µg/mL (≈ 0.128 µM) | 0.08 µg/mL (≈ 0.128 µM) | 2 µg/mL (≈ 3.21 µM) | 0.08 µg/mL (≈ 0.128 µM) | 0.08 µg/mL (≈ 0.128 µM) | > 50 µg/mL | 0.08 µg/mL (≈ 0.128 µM) | > 50 µg/mL | –
7 | COc1ccc(F)cc1[C@H](Cn1c(=O)n(C(C)(C)C(=O)NC2CCC2)c(=O)c2c(C)c(-n3nccn3)sc21)OC1CCOCC1 [Compound I-038] | 0.4 µg/mL (≈ 0.624 µM) | 0.4 µg/mL (≈ 0.624 µM) | 0.4 µg/mL (≈ 0.624 µM) | 0.08 µg/mL (≈ 0.125 µM) | 0.4 µg/mL (≈ 0.624 µM) | 10 µg/mL (≈ 15.6 µM) | 0.08 µg/mL (≈ 0.125 µM) | ≥ 2 µg/mL | – | – | – | – | – | – | – | – | –
8 | COc1ccccc1[C@H](Cn1c(=O)n([C@H](C)C(=O)N(C)C(C)C)c(=O)c2c(C)c(-n3nccn3)sc21)OCCC#N [Compound I-238] | – | – | – | – | – | – | – | – | 2 µg/mL (≈ 3.45 µM) | 10 µg/mL (≈ 17.3 µM) | 10 µg/mL (≈ 17.3 µM) | 2 µg/mL (≈ 3.45 µM) | 10 µg/mL (≈ 17.3 µM) | > 50 µg/mL | 10 µg/mL (≈ 17.3 µM) | > 50 µg/mL | –
9 | C=CCO[C@@H](Cn1c(=O)n(C(C)(C)C(=O)NC(C)C)c(=O)c2c(C)c(-n3nccn3)sc21)c1cc(F)ccc1OC [Compound I-077] | 2 µg/mL (≈ 3.42 µM) | 2 µg/mL (≈ 3.42 µM) | 2 µg/mL (≈ 3.42 µM) | 0.08 µg/mL (≈ 0.137 µM) | 0.4 µg/mL (≈ 0.684 µM) | > 50 µg/mL | 0.4 µg/mL (≈ 0.684 µM) | > 50 µg/mL | – | – | – | – | – | – | – | – | –
10 | COc1ccc(F)cc1[C@H](Cn1c(=O)n([C@@H](C)C(=O)N2CCCC2)c(=O)c2c(C)c(-n3cccn3)sc21)OC(C)C [Compound I-063] | 0.4 µg/mL (≈ 0.685 µM) | 0.4 µg/mL (≈ 0.685 µM) | ≥ 0.4 µg/mL | 0.08 µg/mL (≈ 0.137 µM) | 0.4 µg/mL (≈ 0.685 µM) | > 50 µg/mL | 2 µg/mL (≈ 3.43 µM) | ≥ 50 µg/mL | – | – | – | – | – | – | – | – | –
11 | CCNC(=O)C(C)(C)n1c(=O)c2c(C)c(-n3nccn3)sc2n(C[C@H](OC(C)C)c2cc(F)ccc2OC)c1=O [Compound I-019] | ≥ 0.4 µg/mL | ≥ 0.4 µg/mL | ≥ 0.4 µg/mL | 0.08 µg/mL (≈ 0.14 µM) | 0.4 µg/mL (≈ 0.698 µM) | > 50 µg/mL | 0.08 µg/mL (≈ 0.14 µM) | > 10 µg/mL | – | – | – | – | – | – | – | – | –
12 | COc1ccccc1[C@H](Cn1c(=O)n(C(C)(C)C(=O)N2CCCC2)c(=O)c2c(C)c(-n3nccn3)sc21)OCCC#N [Compound I-196] | – | – | – | – | – | – | – | – | 2 µg/mL (≈ 3.38 µM) | 10 µg/mL (≈ 16.9 µM) | 10 µg/mL (≈ 16.9 µM) | 0.4 µg/mL (≈ 0.676 µM) | 2 µg/mL (≈ 3.38 µM) | > 50 µg/mL | 2 µg/mL (≈ 3.38 µM) | > 50 µg/mL | –
